Test [1] deals with ATDC5 cells. The test is described as follows: Chondrogenesis activity assay in ATDC5 cells (collagen type II induction, immunofluorescence). Format: cell-based, mouse. Conditions: Mus musculus; for EC50: collagen type II induction in ATDC5 cells, concentration reaching 50% of maximum induction; for Emax: maximum percent induction of collagen type II relative to internal reference compound at 10 μM, ATDC5 cells. In outline:
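Mouse ATDC5 cells in insulin (10 μg/ml)-containing DMEM/F12 differentiation medium with 5% FCS were exposed to compound, typically 40 nM–10 μM at 0.1% DMSO, for 4 days at 37 °C. Intracellular collagen type II was quantified by Alexa Fluor 488 immunostaining with high-content imaging, relative to DMSO and a 10 μM reference compound.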

Test [2] has as its system primary human chondrocyte pellet cultures. The test is described as follows: Chondrogenesis activity assay in primary human chondrocyte pellet cultures (proteoglycan (aggrecan) induction, Blyscan assay). Conditions: for EC50: 336 h, proteoglycan (aggrecan) induction, primary human chondrocyte pellets, 2 weeks culture; for Emax: Homo sapiens, Chondrocyte, maximum percent proteoglycan (aggrecan) induction relative to the internal reference compound at 10 μM. The format is cell-based. As for the experimental part:
B) Chondrogenesis Activity Assay in Primary Human Chondrocyte Pellet Cultures
In this assay human articular chondrocytes are harvested by enzymatic digestion from articular cartilage and passaged several times to dedifferentiate the chondrocytes and to propagate the cells. Cells are cultured as cell pellets in the presence of the compounds of the invention over 2 weeks, and the chondrogenic differentiation is quantified by the production of the chondrogenic marker aggrecan (proteoglycan).
In detail, primary chondrocytes were harvested by enzymatic digestion from cartilage of osteoarthritis patients undergoing knee joint replacement surgery, and cultured in vitro. Cells were passaged one or two times and aliquots were cryopreserved. To initiate chondrogenesis experiments, cell aliquots were thawn, cultured in Chondrocyte Growth Medium (CGM, Lonza, #CC-3216) and passaged twice to further propagate and dedifferentiate cells. Pellet cultures were initiated by seeding 2.5×10E5 cells per well into a 96-well deep well plate in 600 μl chondrocyte differentiation medium consisting of Dulbecco's Modified Eagle Medium (DMEM, Invitrogen, #41966), 1×ITS-solution (Insulin/Transferrin/sodium selenite; 100× solution: Invitrogen, #51500056), 5 μg/mL linoleic acid (Sigma, #L1012-1G), 1× nonessential amino acids (100× solution: Invitrogen, #11140); 10 nM Dexamethasone, 2 ng/ml TGF-β1 (transforming growth factor β1) and 10 μg/ml ascorbic acid. Cells were spun to pellets by centrifugation (10 min, 400×g). Test compounds dissolved in DMSO were added to yield increasing compound concentrations, typically from 40 nM to 10 μM, and a final DMSO concentration of 0.1%, and the cell pellets cultured at 37° C., and 5% CO2 for 2 weeks. On each 96-well plate, control wells containing no test compound but the same concentration of DMSO, i.e. untreated cells, were included and used as reference for the determination of the effect of the test compounds on the cells, and wells containing an internal reference compound at a concentration of 10 μM were included and used as positive control and for standardizing the results. Chondrocyte differentiation medium and the compounds were exchanged twice weekly until harvest of the pellets.
For harvest of the pellets, medium was removed and the pellet was homogenized by enzymatic digestion. 100 μl of protease solution containing 0.4 mg/ml papain, 50 mM sodium phosphate, 4 mM EDTA and 0.48 mg/ml L-cysteine was added to the pellet in each well of a 96-well plate, the plate was sealed with a plate sealer foil (SILVERseal, Greiner Bio-One) and incubated for 4 to 6 hours at 65° C. with agitation.
The concentration of proteoglycan (aggrecan) was determined by quantification of the sulfated glycosaminoglycan side chains of aggrecan using the Blyscan assay (Kit from Biocolor). Aliquots of the papain-digest were transferred to 400 μl of Blyscan dye solution and incubated at room temperature for 45 min with agitation (1200 rpm). The mixture was centrifuged at 3760×g for 45 min, the supernatant was discarded, and the stained pellet was redissolved in 400 μl of Blyscan dissociation reagent by rotation until the precipitate completely resolved. Optical density was measured at 656 nm using a Tecan Saphire2 instrument, and the amount of proteoglycan determined against a standard curve with chondroitin-4-sulfate.
Induction of proteoglycan (aggrecan) was calculated for each compound concentration relative to the control (untreated cells, i.e. no test compound added), and an EC50 value (effective concentration 50 (in μM (micromollliter)), i.e. the compound concentration at which the effect of the compound on proteoglycan (aggrecan) induction reaches 50% of the maximum induction) was calculated using a sigmoidal signal fit procedure. […]

Bounds are passed on as bounds.

Our source for the EC50 and Emax values is patent US12275733B2, “Substituted pyrido[3,4-b]indoles for the treatment of cartilage disorders” (Sanofi, priority 2016, dated 2025).

By EC50 is commonly meant the concentration giving half of the maximal effect. A higher EC50 goes with a less potent agent. The term Emax denotes the greatest response seen or fitted, relative to the assay's reference. Take `FC(F)(F)Cn1c2cnccc2c2cc(Cl)cc(-c3cnn(Cc4cccnc4)c3)c21` [Example 2, 6-Chloro-8-(1-(pyridin-3-ylmethyl)-1H-pyrazol-4-yl)-9-(2,2,2-trifluoroethyl)-9H-pyrido[3,4-b]indole]: in test [1], the EC50 is 710 nM and the Emax was above 80%. Moreover, in test [2], the EC50 was found to be 4400 nM and the Emax is above 200%.
In test [1], `CCn1c2c(-c3cnn(Cc4cccnc4)c3)cc(Br)cc2c2ccnc(C)c21` [Example 5, 6-Bromo-9-ethyl-1-methyl-8-(1-pyridin-3-ylmethyl-1H-pyrazol-4-yl)-9H-pyrido[3,4-b]indole] came in with an EC50 of 490 nM and an Emax above 80%. Besides, in test [2], a half-maximal effect (EC50) was put at 1300 nM and the Emax is above 200%.
As for `Cc1nccc2c1[nH]c1c(-c3ccc(OCC4(C)COC4)cc3)cc(Cl)c(C)c12` [Example 8, 6-Chloro-1,5-dimethyl-8-[4-(3-methyl-oxetan-3-ylmethoxy)-phenyl]-9H-pyrido[3,4-b]indole], in test [1], the EC50 was 120 nM and the Emax was above 80%. In test [2], this compound displayed an EC50 of 260 nM and an Emax of 100 to 200%.
With `OCCn1cc(-c2cc(Cl)cc3c4ccncc4n(CC(F)(F)F)c23)cn1` [Example 10, 2-(4-[6-Chloro-9-(2,2,2-trifluoroethyl)-9H-pyrido[3,4-b]indol-8-yl]pyrazol-1-yl)ethanol], in test [1], a half-maximal response (EC50) required 690 nM and the Emax was above 80%. Also, in test [2], the EC50 stood at 2400 nM and the Emax was 40 to 100%.
In test [1], `FC(F)(F)Cn1c2cnccc2c2cc(Cl)cc(-c3cnn(-c4ccccc4)c3)c21` [Example 11, 6-Chloro-8-(1-phenyl-1H-pyrazol-4-yl)-9-(2,2,2-trifluoroethyl)-9H-pyrido[3,4-b]indole] gave an EC50 of 3900 nM and an Emax of 50 to 80%. In test [2], this compound came in with an EC50 of 7900 nM and an Emax of 40 to 100%.
The like results for `Cc1nccc2c1[nH]c1c(-c3ccc(OCCn4cccn4)cc3)cc(Cl)cc12` [Example 13, 6-Chloro-1-methyl-8-[4-(2-(1H-pyrazol-1-yl)ethoxy)-phenyl]-9H-pyrido[3,4-b]indole] were, in that order, 120 nM, above 80%, 1100 nM and above 200%.
As for `CCn1c2c(-c3ccnn3C)cc(Cl)cc2c2ccnc(C)c21` [Example 19, 6-Chloro-9-ethyl-1-methyl-8-(2-methyl-2H-pyrazol-3-yl)-9H-pyrido[3,4-b]indole], in test [1], the EC50 was above 10000 nM and the Emax was 50 to 80%. Besides, in test [2], the response was half-maximal at 6900 nM (EC50) and the Emax was 40 to 100%.
In the case of `CCn1c2c(-c3cnn(C)c3)cc(Br)cc2c2cc(C)nc(C)c21` [Example 21, 6-Bromo-9-ethyl-1,3-dimethyl-8-(1-methyl-1H-pyrazol-4-yl)-9H-pyrido[3,4-b]indole], the EC50 in test [1] was above 3300 nM; in test [2], 4300 nM. The Emax in test [1] is 20 to 50%; in test [2], above 200%.
In test [1], `COc1ccc(-c2cc(Cl)cc3c4ccnc(C)c4n(C)c23)cc1` [Example 22, 6-Chloro-8-(4-methoxy-phenyl)-1,9-dimethyl-9H-pyrido[3,4-b]indole] yielded an EC50 of 630 nM and a maximal response (Emax) above 80%. In addition, in test [2], a half-maximal response (EC50) required 4000 nM and the Emax was above 200%.
Take `Clc1cc(-c2cccnc2)c2c(c1)c1ccncc1n2CC1CC1` [Example 280, 6-Chloro-9-cyclopropylmethyl-8-pyridin-3-yl-9H-pyrido[3,4-b]indole]: in test [1], the EC50 was above 10000 nM and the Emax is below 20%.
For `Cc1nccc2c3cc(Cl)cc(-c4cncnc4)c3n(CC3CC3)c12` [Example 281, 6-Chloro-9-cyclopropylmethyl-1-methyl-8-pyrimidin-5-yl-9H-pyrido[3,4-b]indole], in test [1], the EC50 turned out to be 110 nM and the Emax was below 20%.
With `Cc1nccc2c3cc(Cl)cc(-c4ccc(Cl)cc4Cl)c3n(CC3CC3)c12` [Example 282, 6-Chloro-9-cyclopropylmethyl-8-(2,4-dichloro-phenyl)-1-methyl-9H-pyrido[3,4-b]indole], in test [1], the EC50 came to 3600 nM and the Emax is below 20%.
With `Cc1nccc2c3cc(Cl)cc(-c4cnccc4Cl)c3n(CC3CC3)c12` [Example 283, 6-Chloro-8-(4-chloro-pyridin-3-yl)-9-cyclopropylmethyl-1-methyl-9H-pyrido[3,4-b]indole], in test [1], the EC50 was 410 nM and the Emax was below 20%.
`Cc1nccc2c3cc(Cl)cc(-c4cccnc4Cl)c3n(CC3CC3)c12` [Example 284, 6-Chloro-8-(2-chloro-pyridin-3-yl)-9-cyclopropylmethyl-1-methyl-9H-pyrido[3,4-b]indole]: in test [1], the EC50 was determined as 4200 nM and the Emax is below 20%.
In the case of `Cc1nccc2c3cc(Cl)cc(-c4ccc(Cl)nc4Cl)c3n(CC3CC3)c12` [Example 285, 6-Chloro-9-cyclopropylmethyl-8-(2,6-dichloro-pyridin-3-yl)-1-methyl-9H-pyrido[3,4-b]indole], in test [1], the EC50 came to 6100 nM and the Emax fell in the range of 20 to 50%.
In test [1], `Cc1nccc2c3cc(Cl)cc(-c4cnc(N(C)C)nc4)c3n(CC3CC3)c12` [Example 286, [5-(6-Chloro-9-cyclopropylmethyl-1-methyl-9H-pyrido[3,4-b]indol-8-yl)-pyrimidin-2-yl]-dimethyl-amine] came in with an EC50 of 41 nM and an Emax below 20%.
In test [1], `Cn1cc(-c2cc(Cl)cc3c4ccncc4n(CC4CC4)c23)cn1` [Example 287, 6-Chloro-9-cyclopropylmethyl-8-(1-methyl-1H-pyrazol-4-yl)-9H-pyrido[3,4-b]indole] gave an EC50 of 230 nM and an Emax of 50 to 80%.
In the case of `COc1ccc(-c2cc(Cl)cc3c4ccncc4n(C4CC4)c23)cc1` [Example 289, 6-Chloro-9-cyclopropyl-8-(4-methoxy-phenyl)-9H-pyrido[3,4-b]indole], in test [1], the EC50 was 750 nM and the Emax is above 80%.
The like results for `Cc1nccc2c3cc(Cl)cc(-c4cnn(Cc5cccnc5)c4)c3n(CC3CC3)c12` [Example 290, 6-Chloro-9-cyclopropylmethyl-1-methyl-8-(1-pyridin-3-ylmethyl-1H-pyrazol-4-yl)-9H-pyrido[3,4-b]indole] were, in that order, above 10000 nM and 20 to 50%.
The like results for `Clc1ccc(-c2cc(Cl)cc3c4ccncc4n(CC4CC4)c23)cc1` [Example 291, 6-Chloro-8-(4-chloro-phenyl)-9-cyclopropylmethyl-9H-pyrido[3,4-b]indole] were, in that order, 1700 nM and 50 to 80%.
For `Cc1nccc2c3cc(Cl)cc(-c4ccccc4C(N)=O)c3n(CC3CC3)c12` [Example 292, 2-(6-Chloro-9-cyclopropylmethyl-1-methyl-9H-pyrido[3,4-b]indol-8-yl)-benzamide], in test [1], the EC50 is above 6600 nM and the Emax was below 20%.
Take `COc1ccc(-c2cc(Cl)cc3c4ccnc(C)c4n(CC4CC4)c23)cc1` [Example 293, 6-Chloro-9-cyclopropylmethyl-8-(4-methoxy-phenyl)-1-methyl-9H-pyrido[3,4-b]indole]: in test [1], the midpoint of the response, the EC50, lay at 4500 nM and the Emax was in the range of 50 to 80%.
On to `CN(C)c1ccc(-c2cc(Cl)cc3c4ccncc4n(CC4CC4)c23)c(Cl)n1` [Example 294, [6-Chloro-5-(6-chloro-9-cyclopropylmethyl-9H-pyrido[3,4-b]indol-8-yl)-pyridin-2-yl]-dimethyl-amine], for which, in test [1], a half-maximal effect (EC50) was put at 1200 nM and the Emax was above 80%.
